Data as given in paper PMC3556473, “Absorption, metabolism and excretion of [^14C]pomalidomide in humans following oral administration” (Cancer Chemotherapy and Pharmacology, 2012).

Experiments:
[1] = target: T1, CYP1A2 (Homo sapiens, UniProt P05177); experiment: In vitro CYP phenotyping (M17 formation from [14C]pomalidomide); assay type: in vitro ADME
T1 construct: purchased Cypex Ltd (Scotland, UK)
T1 sequence (P05177 1-516): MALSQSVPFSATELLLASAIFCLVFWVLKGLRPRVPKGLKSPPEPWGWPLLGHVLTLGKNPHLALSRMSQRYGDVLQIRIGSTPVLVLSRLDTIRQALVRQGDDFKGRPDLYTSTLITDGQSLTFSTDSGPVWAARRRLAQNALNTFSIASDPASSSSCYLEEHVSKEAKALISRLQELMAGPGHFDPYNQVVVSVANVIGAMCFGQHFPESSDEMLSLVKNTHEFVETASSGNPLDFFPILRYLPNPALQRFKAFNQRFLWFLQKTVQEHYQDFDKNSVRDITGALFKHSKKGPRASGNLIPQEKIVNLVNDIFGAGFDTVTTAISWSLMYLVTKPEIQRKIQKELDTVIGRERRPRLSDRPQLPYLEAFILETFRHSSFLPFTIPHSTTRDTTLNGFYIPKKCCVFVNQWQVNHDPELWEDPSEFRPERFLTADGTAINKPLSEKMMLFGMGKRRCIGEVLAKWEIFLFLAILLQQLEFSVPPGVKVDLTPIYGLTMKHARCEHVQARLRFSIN
Description: The CYP enzymes responsible for the formation of the hydroxy pomalidomide metabolites were investigated using 10 recombinant human CYP (rCYP) enzymes (CYP1A2, CYP2A6, CYP2B6, CYP2C8, CYP2C9, CYP2C19, CYP2D6, CYP2E1, CYP3A4 and CYP3A5) at 100 pmol/mL. Incubations were prepared using [^14C]pomalidomide (1 μM) in 0.1 M potassium phosphate buffer (pH 7.4) with 4 mM MgCl2, pre-incubated for 5 min at 37 °C. Reactions were initiated by the addition of 1 mM NADPH and continued for 30 or 60 min. Reactions were quenched with two volumes of ice-cold 0.1 % formic acid in acetonitrile containing [^13C5]pomalidomide as internal standard. The samples were mixed and centrifuged, and a subsample of the supernatant evaporated to dryness. The resulting pellet was reconstituted in 0.1 % formic acid in water and acetonitrile (4:1, v/v) and analyzed using HPLC with radiochromatography and/or LC–MS/MS. The rate of formation of the notable human metabolite M17 was calculated and scaled to human in vivo situation using relative abundance method.

[2] = tested on: PBMC TNF-α production; experiment: Inhibition of TNF-α production by LPS-stimulated human PBMC (1-day culture); assay type: cell-based; conditions: 24 h
Description: (§1) Metabolites and hydrolysis products of pomalidomide were tested for pharmacological activity in the following three assay systems: (1) inhibition of MM cell proliferation, (2) enhancement of primary human T cell IL-2 production and (3) inhibition of TNF-α production by lipopolysaccharide (LPS)-stimulated human peripheral blood mononuclear cells (PBMC). For all three assay types, compounds were dissolved in 100 % dimethyl sulfoxide (DMSO) and diluted into complete cell culture medium, consisting of Roswell Park Memorial Institute (RPMI)-1640 plus penicillin, streptomycin and L-glutamine (Mediatech, Manassas, VA). The MM cell proliferation cell culture medium contained 10 % fetal bovine serum, while the primary human cell cultures contained 10 % human AB serum (Invitrogen, Brown Deer, WI). The final DMSO concentration in the cell culture media was 0.25 %.
(§2) The human MM cell line OPM-2 was obtained from DSMZ (Braunschweig, Germany), and human MM cell lines U266 B1 and NCI-H929 were obtained from ATCC (Manassas, VA). Inhibition of MM cell proliferation was assessed by the [^3H]-thymidine incorporation assay in a 3-day culture in the presence of compounds in complete medium, as previously described. Primary human T cells were isolated from PBMC by negative selection using the RosetteSep T Cell Enrichment Cocktail (STEMCELL Technologies, Tukwila, WA) according to the manufacturer’s procedures. Costimulation of T cell IL-2 production was measured in a 2-day culture of primary human T cells isolated from healthy donors stimulated with anti-CD3 antibody in the presence of compounds, as previously described. Inhibition of TNF-α production by LPS-stimulated human PBMC was measured in a 1-day culture in the presence of compound, as previously described.

[3] = tested on: H929 MM cell; experiment: Inhibition of MM cell proliferation ([3H]-thymidine incorporation, 3-day culture); assay type: cell-based; conditions: Homo sapiens, NCI-H929
Description: as §1, §2

[4] = tested on: U266 MM cell; experiment: as above; assay type: cell-based; conditions: Homo sapiens, U-266
Description: as §1, §2

[5] = tested on: OPM-2 MM cell; experiment: as above; assay type: cell-based; conditions: Homo sapiens
Description: as §1, §2

[6] = Metabolite profiling of urine and feces (% of dose excreted); assay type: in vivo, human; conditions: for % of dose excreted, Feces: pooled feces 0–96 h; for % of dose excreted, Feces / % of dose excreted, Urine: radiochromatography; for % of dose excreted, Urine: pooled urine 0–72 h
Description: For each subject, urine samples were pooled using an equal percentage by volume of the 0–6, 6–12, 12–24, 24–48 and 48–72 h samples. Pools of the 0–6, 6–12, 12–24, 24–48 and 48-72 h collections were also prepared across subjects and analyzed for metabolite profiling. Samples were mixed and centrifuged prior to the supernatants being transferred to fresh tubes for metabolite profiling analysis.
For each subject, fecal homogenates for metabolite profiling were pooled using an equal percentage by weight of the 0–24, 24–48, 48–72 and 72–96 h samples. Pools of the 0–24, 24-48, 48–72 and 72–96 h collections were also prepared across subjects and analyzed for metabolite profiling. An aliquot of each pool was extracted with acetonitrile; samples were mixed and centrifuged. The supernatant was removed and the pellets re-suspended with 0.1 % formic acid and extracted with acetonitrile. The combined supernatants were evaporated to dryness under a stream of nitrogen and the residue re-suspended in methanol:0.1 % formic acid in water (1:1). Samples were assayed for extraction recovery prior to metabolite profiling. A control fecal homogenate spiked with [^14C]pomalidomide was extracted in a similar manner to determine the extraction efficiency and stability of [^14C]pomalidomide.
HPLC analysis for metabolite profiling (HPLC Method 1) was performed using a Waters 2695 Alliance Separation Module (Waters Corp., Milford, MA) with the autosampler set to 4 °C. [^14C]Pomalidomide and metabolites were separated using an ACE C18 column (150 × 4.6 mm, 3 μm; Advanced Chromatography Technologies, Aberdeen, Scotland) equipped with an ACE C18 guard column (10 × 3 mm, 3 μm). The mobile phases used were 25 mM ammonium acetate in water: pH 5.5 with formic acid (mobile phase A) and methanol (mobile phase B). The column temperature was 30 °C, and the flow rate was 0.7 mL/min. The linear gradient was delivered as follows: 0–2 min 100 % A; 2–38 min to 64 % A; 38–44 min to 0 % A; 44–48 min hold at 0 % A; return to initial conditions over 2 min.
Radioactivity profiles for plasma and excreta were determined by collecting the column eluate into 96-well Deepwell LumaPlates™ at a rate of 0.25 min/fraction. The plates were dried and the radioactivity in each well determined using a PerkinElmer TopCount® NXT™ Microplate Scintillation Counter. HPLC radiochromatograms were reconstructed using LC-ARC data handling software.

Row | relative contribution of isozyme to the hepatic metabolism of pomalidomide ([1]; CYP1A2, scaled by relative abundance in human liver) [%] | IC50 [3] [nM] | IC50 [4] [nM] | Percent dose excreted in human urine, Parent ([6]; pomalidomide, this study) [%] | Percent dose excreted in human urine, Total ([6]; pomalidomide, this study) [%] | % of dose excreted, Feces [6] [%] | % of dose excreted, Feces ([6]; listed as pomalidomide) [%] | % of dose excreted, Urine [6] [%] | dose excreted as unchanged drug (excreta) ([6]; urine + feces, % of the dose) [%] | rate of M17 formation ([1]; rCYP1A2, [14C]pomalidomide 1 μM, 1-h incubation, based on peak area ratios, estimated) [pmol/min/pmol P450] | Compound | IC50 [2] [nM] | IC50 [5] [nM]
1 | 54 | 35 | 28 | 2.2 | 72.8 | 7.7 | 8 | 2.2 | 10 |  | Nc1cccc2c1C(=O)N(C1CCC(=O)NC1=O)C2=O (racemic) [Pomalidomide, (RS)-4-amino-2-(2,6-dioxo-piperidin-3-yl)-isoindoline-1,3-dione] | 3.1 | 38
2 |  | > 1000 | > 1000 |  |  | 2.8 |  | 3.2 |  | 0.0027 | Nc1c(O)ccc2c1C(=O)N(C1CCC(=O)NC1=O)C2=O (stereo not drawn) [Metabolite M17, 5-hydroxy pomalidomide] | > 10000 | > 1000
